According to PubChem BioAssay AID1963970 (Molecular Pharmacology Branch, DTP, NCI, 2024):

Tested on: 931267-113-T-J1-PDC multicell spheroid viability
Test: Anticancer human tumor 931267-113-T-J1-PDC patient-derived colon adenocarcinoma cell line growth inhibition [PI3K]
Conditions: for IC50: curve of first compound; for viability, T/C: stronger effect = lower value
How it was run: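 Agents were dosed from a top concentration near clinical Cmax (otherwise 10 microM) in half-log decrements, alone or combined with PI3K inhibitors. The spheroids contain tumor cells plus endothelial (HUVEC) and MSC stroma; viability is measured.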

[1] = second compound 0.00316 µM, first compound 0.0316 µM
[2] = second compound 0.00316 µM, first compound 0.1 µM
[3] = second compound 0.00316 µM, first compound 0.316 µM
[4] = second compound 0.00316 µM, first compound 1 µM
[5] = second compound 0.00316 µM, first compound 3.16 µM
[6] = second compound 0.00316 µM, first compound 10 µM
[7] = second compound 0.01 µM, first compound 0.0316 µM
[8] = second compound 0.01 µM, first compound 0.1 µM
[9] = second compound 0.01 µM, first compound 0.316 µM
[10] = second compound 0.01 µM, first compound 1 µM
[11] = second compound 0.01 µM, first compound 3.16 µM
[12] = second compound 0.01 µM, first compound 10 µM
[13] = second compound 0.0316 µM, first compound 0.0316 µM
[14] = second compound 0.0316 µM, first compound 0.1 µM
[15] = second compound 0.0316 µM, first compound 0.316 µM
[16] = second compound 0.0316 µM, first compound 1 µM
[17] = second compound 0.0316 µM, first compound 3.16 µM
[18] = second compound 0.0316 µM, first compound 10 µM
[19] = second compound 0.1 µM, first compound 0.0316 µM
[20] = second compound 0.1 µM, first compound 0.1 µM
[21] = second compound 0.1 µM, first compound 0.316 µM
[22] = second compound 0.1 µM, first compound 1 µM
[23] = second compound 0.1 µM, first compound 3.16 µM
[24] = second compound 0.1 µM, first compound 10 µM
[25] = second compound 0.316 µM, first compound 0.0316 µM
[26] = second compound 0.316 µM, first compound 0.1 µM
[27] = second compound 0.316 µM, first compound 0.316 µM
[28] = second compound 0.316 µM, first compound 1 µM
[29] = second compound 0.316 µM, first compound 3.16 µM
[30] = second compound 0.316 µM, first compound 10 µM
[31] = second compound 1 µM, first compound 0.0316 µM
[32] = second compound 1 µM, first compound 0.1 µM
[33] = second compound 1 µM, first compound 0.316 µM
[34] = second compound 1 µM, first compound 1 µM
[35] = second compound 1 µM, first compound 3.16 µM
[36] = second compound 1 µM, first compound 10 µM
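Further: viability read 7 days after compound addition.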

**Q.** With `CC(C)NCC(C(=O)N1CCN(c2ncnc3c2C(C)CC3O)CC1)c1ccc(Cl)cc1` (stereo not drawn) + COc1c(OCCCN2CCOCC2)ccc2c3n(c(=NC(=O)c4cnc(N)nc4)nc12)CCN3 as the compound, how does the IC50 (second compound 0.00316 µM) read?
**A.** > 10000 nM

**Q.** What about the IC50 (second compound 0.01 µM) of the same compound?
**A.** > 10000 nM

**Q.** What about the IC50 (second compound 0.0316 µM) of the same compound?
**A.** > 10000 nM

**Q.** What about the IC50 (second compound 0.1 µM) of the same compound?
**A.** > 10000 nM

**Q.** What about the IC50 (second compound 0.316 µM) of the same compound?
**A.** < 31.6 nM

**Q.** And the IC50 (second compound 1 µM)?
**A.** < 31.6 nM

**Q.** What about the viability, T/C [1] of the same compound?
**A.** 94.2%

**Q.** And the viability, T/C [2]?
**A.** 96.2%

**Q.** And the viability, T/C [3]?
**A.** 94.3%

**Q.** What about the viability, T/C [4] of the same compound?
**A.** 94.7%

**Q.** What about the viability, T/C [5] of the same compound?
**A.** 95%

**Q.** What about the viability, T/C [6] of the same compound?
**A.** 71.1%

**Q.** What about the viability, T/C [7] of the same compound?
**A.** 96.3%

**Q.** What about the viability, T/C [8] of the same compound?
**A.** 93.7%

**Q.** And the viability, T/C [9]?
**A.** 93.2%

**Q.** What about the viability, T/C [10] of the same compound?
**A.** 91.2%

**Q.** What about the viability, T/C [11] of the same compound?
**A.** 97.8%

**Q.** What about the viability, T/C [12] of the same compound?
**A.** 71.4%

**Q.** And the viability, T/C [13]?
**A.** 84.9%

**Q.** And the viability, T/C [14]?
**A.** 84.9%

**Q.** What about the viability, T/C [15] of the same compound?
**A.** 81.8%

**Q.** What about the viability, T/C [16] of the same compound?
**A.** 81.6%

**Q.** What about the viability, T/C [17] of the same compound?
**A.** 83.3%

**Q.** And the viability, T/C [18]?
**A.** 65.8%

**Q.** And the viability, T/C [19]?
**A.** 67.8%

**Q.** And the viability, T/C [20]?
**A.** 71.1%

**Q.** What about the viability, T/C [21] of the same compound?
**A.** 71.6%

**Q.** What about the viability, T/C [22] of the same compound?
**A.** 69.7%

**Q.** What about the viability, T/C [23] of the same compound?
**A.** 67.5%

**Q.** And the viability, T/C [24]?
**A.** 55.7%

**Q.** What about the viability, T/C [25] of the same compound?
**A.** 43.6%

**Q.** And the viability, T/C [26]?
**A.** 44.8%

**Q.** And the viability, T/C [27]?
**A.** 44%

**Q.** And the viability, T/C [28]?
**A.** 47.7%

**Q.** And the viability, T/C [29]?
**A.** 49.2%

**Q.** And the viability, T/C [30]?
**A.** 44.1%

**Q.** What about the viability, T/C [31] of the same compound?
**A.** 32.9%

**Q.** What about the viability, T/C [32] of the same compound?
**A.** 30.8%

**Q.** And the viability, T/C [33]?
**A.** 35.8%

**Q.** And the viability, T/C [34]?
**A.** 31%

**Q.** And the viability, T/C [35]?
**A.** 42%

**Q.** And the viability, T/C [36]?
**A.** 33.3%

**Q.** What does the source list for `CCN1CCN(Cc2ccc(Nc3ncc(F)c(-c4cc(F)c5nc(C)n(C(C)C)c5c4)n3)nc2)CC1` + COc1c(OCCCN2CCOCC2)ccc2c3n(c(=NC(=O)c4cnc(N)nc4)nc12)CCN3?
**A.** IC50 (second compound 0.00316 µM): > 1000 nM; IC50 (second compound 0.01 µM): > 1000 nM; IC50 (second compound 0.0316 µM): > 1000 nM; IC50 (second compound 0.1 µM): 88.8 nM; IC50 (second compound 0.316 µM): < 3.16 nM; IC50 (second compound 1 µM): < 3.16 nM; viability, T/C (second compound 0.00316 µM, first compound 0.00316 µM): 91.3%; viability, T/C (second compound 0.00316 µM, first compound 0.01 µM): 105%; viability, T/C [1]: 97.3%; viability, T/C [2]: 98.7%; viability, T/C [3]: 94.2%; viability, T/C [4]: 81.7%; viability, T/C (second compound 0.01 µM, first compound 0.00316 µM): 103%; viability, T/C (second compound 0.01 µM, first compound 0.01 µM): 89.4%; viability, T/C [7]: 87.6%; viability, T/C [8]: 90.2%; viability, T/C [9]: 89%; viability, T/C [10]: 67%; viability, T/C (second compound 0.0316 µM, first compound 0.00316 µM): 84.3%; viability, T/C (second compound 0.0316 µM, first compound 0.01 µM): 79.1%; viability, T/C [13]: 76.8%; viability, T/C [14]: 70.8%; viability, T/C [15]: 67.2%; viability, T/C [16]: 55.5%; viability, T/C (second compound 0.1 µM, first compound 0.00316 µM): 66.3%; viability, T/C (second compound 0.1 µM, first compound 0.01 µM): 65.6%; viability, T/C [19]: 57.2%; viability, T/C [20]: 47.5%; viability, T/C [21]: 49.2%; viability, T/C [22]: 50.8%; viability, T/C (second compound 0.316 µM, first compound 0.00316 µM): 53.5%; viability, T/C (second compound 0.316 µM, first compound 0.01 µM): 44.7%; viability, T/C [25]: 39.6%; viability, T/C [26]: 37.3%; viability, T/C [27]: 41.6%; viability, T/C [28]: 45%; viability, T/C (second compound 1 µM, first compound 0.00316 µM): 33.6%; viability, T/C (second compound 1 µM, first compound 0.01 µM): 35.6%; viability, T/C [31]: 25.3%; viability, T/C [32]: 32.3%; viability, T/C [33]: 35.9%; viability, T/C [34]: 36.7%

**Q.** Which results are given for `Cn1ncc(Cl)c1-c1cc(C(=O)NC(CN)Cc2cccc(F)c2)sc1Cl` (stereo not drawn) + COc1c(OCCCN2CCOCC2)ccc2c3n(c(=NC(=O)c4cnc(N)nc4)nc12)CCN3?
**A.** IC50 (second compound 0.00316 µM): 5920 nM; IC50 (second compound 0.01 µM): 5800 nM; IC50 (second compound 0.0316 µM): 4900 nM; IC50 (second compound 0.1 µM): 3610 nM; IC50 (second compound 0.316 µM): < 31.6 nM; IC50 (second compound 1 µM): < 31.6 nM; viability, T/C [1]: 95.1%; viability, T/C [2]: 102%; viability, T/C [3]: 89.5%; viability, T/C [4]: 81.8%; viability, T/C [5]: 75.9%; viability, T/C [6]: 30.8%; viability, T/C [7]: 109%; viability, T/C [8]: 95.4%; viability, T/C [9]: 87.4%; viability, T/C [10]: 76%; viability, T/C [11]: 69.6%; viability, T/C [12]: 35.6%; viability, T/C [13]: 90%; viability, T/C [14]: 93.2%; viability, T/C [15]: 82.4%; viability, T/C [16]: 75.3%; viability, T/C [17]: 60.2%; viability, T/C [18]: 34%; viability, T/C [19]: 71.1%; viability, T/C [20]: 70.3%; viability, T/C [21]: 70.1%; viability, T/C [22]: 60%; viability, T/C [23]: 54.3%; viability, T/C [24]: 32.2%; viability, T/C [25]: 47.9%; viability, T/C [26]: 50.4%; viability, T/C [27]: 45.2%; viability, T/C [28]: 47.3%; viability, T/C [29]: 47.5%; viability, T/C [30]: 22.1%; viability, T/C [31]: 34.7%; viability, T/C [32]: 35.6%; viability, T/C [33]: 35.5%; viability, T/C [34]: 33.9%; viability, T/C [35]: 34.8%; viability, T/C [36]: 20%

**Q.** Which results are given for `Cn1nccc1Nc1nccc(-c2ccn(C(CO)c3ccc(Cl)c(F)c3)c(=O)c2)n1` (stereo not drawn) + COc1c(OCCCN2CCOCC2)ccc2c3n(c(=NC(=O)c4cnc(N)nc4)nc12)CCN3?
**A.** IC50 (second compound 0.00316 µM): 3810 nM; IC50 (second compound 0.01 µM): 2740 nM; IC50 (second compound 0.0316 µM): 1220 nM; IC50 (second compound 0.1 µM): 413 nM; IC50 (second compound 0.316 µM): < 31.6 nM; IC50 (second compound 1 µM): < 31.6 nM; viability, T/C [1]: 94.7%; viability, T/C [2]: 82.3%; viability, T/C [3]: 83.2%; viability, T/C [4]: 77.4%; viability, T/C [5]: 52.2%; viability, T/C [6]: 32.1%; viability, T/C [7]: 97.6%; viability, T/C [8]: 98%; viability, T/C [9]: 79.2%; viability, T/C [10]: 67.5%; viability, T/C [11]: 48.5%; viability, T/C [12]: 22.4%; viability, T/C [13]: 79.7%; viability, T/C [14]: 77%; viability, T/C [15]: 68%; viability, T/C [16]: 55.6%; viability, T/C [17]: 30.6%; viability, T/C [18]: 16.1%; viability, T/C [19]: 70%; viability, T/C [20]: 67.4%; viability, T/C [21]: 52.4%; viability, T/C [22]: 37.4%; viability, T/C [23]: 21.9%; viability, T/C [24]: 10.3%; viability, T/C [25]: 42.7%; viability, T/C [26]: 40.2%; viability, T/C [27]: 35%; viability, T/C [28]: 23.7%; viability, T/C [29]: 13.8%; viability, T/C [30]: 6.64%; viability, T/C [31]: 32.7%; viability, T/C [32]: 29.6%; viability, T/C [33]: 27.3%; viability, T/C [34]: 18.4%; viability, T/C [35]: 9.42%; viability, T/C [36]: 5.13%
